Laboratory results reported in US20250346890A1, “LEUKEMIA TREATMENT” (Deutsches Krebsforschungszentrum, priority 2019, published 2025).

Assays:
[1] = tested on: BMP signaling; assay: BMP-reporter assay in Xenopus embryos; type: in vivo, Xenopus laevis
Description: In vitro fertilization, microinjection and culture of Xenopus embryos were performed as previously described (Gawantka et al. (1995), EMBO J 14, 6268-6279). X. laevis embryos were microinjected with reporter DNAs, in vitro transcribed mRNAs or antisense morpholino oligonucleotide (Mo) using Harvard Apparatus microinjection system. Mos for rspo2 (Kazanskaya et al (2004, loc. cit.), lrp6, chordin, bmp4, znrf3 and standard control were purchased from GeneTools. rspo2^ΔTSP Mo was designed based on rspo2 sequence. X. laevis 4-cell stage embryos were microinjected 5 nl per each blastomere equatorially and cultured until indicated stages. Equal amount of total mRNA or Mo were injected by adjustment with ppl or standard control Mo. Scoring of phenotypes was executed blind, and data are representative images from two independent experiments. Embryos in each image were selected using Magnetic Lasso tool or Magic Wand tool of Adobe Photoshop CS6 software, and pasted into the uniform background color for presentation. Statistical analyses show Chi-square tests.

[2] = tested on: ALK3; assay: Western blot analysis of ALK3 in injected Xenopus embryos; type: in vivo, Xenopus laevis; details: Xenopus embryos coinjected with alk3-EYFP mRNA
Description: Injected Xenopus embryos were harvested at stage 15 to 18, homogenized in NP-40 lysis buffer (2% NP-40, 20 mM Tris-HCl pH 7.5, 150 mM NaCl, 10 mM NaF, 10 mM Na3VO4, 10 mM sodium pyrophosphate, 5 mM EDTA, 1 mM EGTA, 1 mM PMSF, and complete Protease Inhibitor Cocktail with a volume of 20 μl per embryo. Lysates were cleared with CFC-113 (Honeywell 34874), followed by centrifugation (14,000 rpm, 10 min at 4° C.), boiling at 95° C. for 5 min with NuPAGE Sample Buffer. 0.5-1 embryos per lane were loaded for SDS-PAGE analysis.

[3] = tested on: ID1; assay: qRT-PCR analysis of ID1 in THP-1 cells; type: cell-based, human; details: ATRA treatment
Description: (§1) Cultured cells were lysed in Macherey-Nagel RAI buffer containing 1% β-mercaptoethanol and total RNAs were isolated using NucleoSpin RNA isolation kit (Macherey-Nagel 740955). Reverse transcription and PCR amplification were performed. Primers used in this study are listed in Supplementary Table 1. Graphs show relative gene expressions to GAPDH. […] Statistical analyses were performed using PRISM7 software with unpaired t-test or one-way ANOVA test.

[4] = tested on: Smad1; assay: Western blot of pSmad1 and tSmad1 in THP-1 cells; type: cell-based, human; details: THP-1 cells
Description: Cultured cells were rinsed with cold PBS and lysed in Triton lysis buffer ([…] Tris-Cl, pH 7.5, 1% Triton X-100, 150 mM NaCl, 1 mM EDTA, 1 mM EGTA, 1 mM β-glycerophosphate, 1 mM Na3 VO4) or RIPA buffer with complete Protease Inhibitor Cocktail (Roche 11697498001). Lysates were mixed with Laemmli buffer with β-mercaptoethanol and boiled at 95° C. for 5 min to prepare SDS-PAGE samples. Western blot images were acquired with SuperSignal West pico ECL (ThermoFisher 34580) or Clarity Western ECL (Biorad 1705061) using LAS-3000 system (FujiFilm). Quantification of blots was done using ImageJ software.
(§2) THP-1 cells were treated with 0.3, 1.0 and 3.0 μg ml^−1 goat polyclonal anti-RSPO2 antibodies (R&D systems AF3266) or goat polyclonal GFP antibodies (ABIN 100085). After 48 hours, medium was replaced including fresh antibodies—and incubated another 24 hours. Western blot analysis and FACS analyses were performed as discussed above.

[5] = tested on: THP-1 cells; assay: Monocyte-macrophage differentiation of THP-1 cells (FACS / qRT-PCR of CD14, CD11B); type: cell-based, human
Description: as §1
For analyzing macrophage differentiation of THP-1, cells were harvested, pelleted and resuspended in ice-cold blocking buffer (PBS supplemented with 1% BSA and 0.1% NaN3). Cells were treated with Fc Receptor Binding Inhibitor as recommended by the manufacturer (eBioscience 14916173) and stained directly with FITC/APC-conjugated antibodies diluted in blocking buffer or with non-conjugated primary antibodies followed by fluorochrome-labeled secondary antibodies. Isotype-matched antibodies were used as controls. Dead cells were excluded by counterstaining with propidium iodide. For analyzing apoptosis of THP-1, cells were fixed in 4% PFA, permeabilized by MeOH and blocked with PBS supplemented with 1% BSA and 0.1% Tween-20. Cells were stained with anti-active Caspase-3 antibody and fluorochrome-labeled secondary antibody. FACS Samples were analyzed with FACSCalibur or FACSCanto (BD Biosciences). 10,000 events per samples were acquired, and results were processed with Cell Quest or FACSDiva software (BD Biosciences). For BMP4 stimulation, cells were treated with 5 and 25 ng ml^−1 recombinant human BMP4 protein (R&D systems 314-BP). 100, 300 and 1000 nM LDN […] (Tocris 6053) were used for rescue assay. For the THP-1 cell number quantification and differentiation validation in vivo, bone marrow cells were harvested from tibias of NSG mice and red blood cells were removed by ACK Lysing Buffer (Gibco A1049201). Cells were stained and analyzed as above. Here, 50,000 PI-negative events per samples were acquired.
as §2
The sequences of shRSPO2 and shControl (Table 1) were synthesized, inserted into the transfer plasmid Tet-pLKO-puro (Addgene 21915) and validated by sequencing. Lentivirus was produced with the 3rd generation lentiviral system according to the protocol available at the Trono lab as described (www.epfl.ch/labs/tronolab/). THP-1 cells were infected with lentivirus with 8 μg ml^−1 Polybrene (Sigma TR-1003) and selected with 0.5 μg ml^−1 puromycin (Calbiochem 540411). Single cell clones were obtained by limiting dilutions. The shRNA expression of clones was validated by monitoring RSPO2 expression after doxycycline treatment (1.0 μg ml^−1) for 3 days.

[6] = tested on: AML cells; assay: Cytarabine (AraC) treatment of THP-1 TetOn-shRNA clones; type: cell-based; details: Dox and AraC treatment
[7] = target: T1, recombinant human RSPO2 (Peprotech 120-43) (human, UniProt Q6UXX9 22-243); assay: in vitro binding assay: plate-coated recombinant RSPO2, ALK3^ECD-AP conditioned medium, bound AP chemiluminescence; Scatchard plot
T1 construct: also called R-spondin 2
Description: High binding 96-well plates (Greiner M5811) were coated with 2 μg ml⁻¹ of recombinant human RSPO1 (Peprotech 120-38), RSPO2 (Peprotech 120-43), RSPO3 (Peprotech 120-44) or FGF8b (Peprotech 100-25) recombinant protein reconstituted in bicarbonate coating buffer (50 mM NaHCO₃, pH 9.6) overnight at 4° C. Coated wells were washed three times with TBST (TBS, 0.1% Tween-20) and blocked with 5% BSA in TBST for 1 hour at room temperature. 1.5 U ml⁻¹ of ALK3^ECD-AP or control conditioned medium was incubated overnight at 4° C. Wells were washed six times with TBST and bound AP activity was measured by the chemiluminescent SEAP Reporter Gene Assay kit (Abcam ab 133077). For ZNRF3-ALK3 binding assay, plates were coated with recombinant human ZNRF3 Fc Chimera protein (R&D systems 7994-RF). ALK3^ECD-AP was preincubated with RSPO2-Flag, RSPO2^ΔTSP-Flag conditioned medium or recombinant RSPO protein prior to treatment. Control conditioned medium and vesicles were used as control. […] Statistical analyses show unpaired t-tests.

[8] = target: T2, human ALK3-HA expressed in HEK293T cells (human, UniProt P36894 24-532); assay: cell surface binding assay on HEK293T cells transfected with human ALK3-HA
T2 construct: whole, on cells; also called HA-tagged ALK3; BMPR1A
Description: Cell surface binding assays were carried essentially out as previously described (Dosch et al. (1997), Development 124, 2325-2334). In brief, human ALK3-HA and Xenopus tropicalis LGR4 DNA were transfected in HEK293T cells, and incubated with 1.5 U ml⁻¹ conditioned media for 3 hours on ice. After several washes and crosslinking, cells were treated with 2 mM Levamisole for 20 min to inactivate endogenous AP activities and developed with BM-Purple (Sigma 11442074001). Cells were mounted with Fluoromount G. Images were obtained using LEICA DMIL microscope/Canon DS126311 camera.

## rspo2 Mo: antisense morpholino against Xenopus rspo2, GCCGTCCAAATGCAGTTTCAAC (SEQ ID NO:9) (all phosphorodiamidate morpholino (PMO))
[1]; Xenopus neurulae, injection
  endogenous BMP signaling: increased endogenous BMP signaling
[1]; coinjection with bmp4 Mo
  BMP signaling reporter, coinjection of bmp4 Mo and rspo2 Mo: canceled each other out
[2]
  ALK3-EYFP protein levels: increased ALK3-EYFP protein levels

## CC1=C(/C=C/C(C)=C/C=C/C(C)=C/C(=O)O)C(C)(C)CCC1 [ATRA, (2E,4E,6E,8E)-3,7-dimethyl-9-(2,6,6-trimethylcyclohexen-1-yl) nona-2,4,6,8-tetraenoic acid]
[3]
  ID1 expression: induced
[4]
  Smad1-phosphorylation: induced Smad1-phosphorylation
[5]; THP-1 TetOn-shRSPO2 clones, Dox+ATRA
  macrophage differentiation, combination with Dox-induced shRSPO2: cooperated in inducing macrophage differentiation
[5]; THP-1 cells, ATRA treatment
  CD11B expression: induced

## Nc1ccn([C@@H]2O[C@H](CO)[C@@H](O)[C@@H]2O)c(=O)n1 [cytarabine]
[6]
  sensitivity of AML cells to cytarabine upon loss of RSPO2: sensitize

B1: ALK3^ECD-AP (extracellular domain of ALK3 fused to alkaline phosphatase, conditioned medium) (receptor, UniProt P36894 24-152, looked up)
chain: QNLDSMLHGTGMKSDSDQKKSENGVTLAPEDTLPFLKCYCSGHCPDDAINNTCITNGHCFAIIEEDDQGETTLASGCMKYEGSDFQCKDSPKAQLRRTIECCRTNLCNQYLQPTLPPVVIGPFFDGSIR
notes: extracellular domain; also called BMPR1A extracellular domain; not shown: alkaline phosphatase (AP) fusion partner from AP-pCS2+
[7]
  Kd: ~4.8 nM

B2: RSPO2^ΔTSP (human RSPO2 TSP1 domain deletion mutant) (ligand, not shown: small tags and cut ends)
chain: QGNRWRRSKRASYVSNPICKGCLSCSKDNGCSRCQQKLFFFLRREGMRQYGECLHSCPSGYYGHRAPDMNRCARCRIENCDSCFSKDFCTKCKVGFYLHRGRCFDECPDGFAPLEETMECVE
notes: also called RSPO2^ΔTSP-Flag
[8]
  binding result: no binding (tested: 1.5 U ml^-1 conditioned media)
